In data set [1] the target is T1, aldose reductase (Bos taurus, UniProt P16116).
T1 construct: preparation of the enzyme from bovine lens; from tissue; host or cells: bovine lens
The data set is described as follows: in vitro aldose reductase inhibition (modified Hayman and Kinoshita procedure; enzyme from bovine lens). Particulars: read-out: % Inhibition At Different Molar Concentrations (in vitro); for inhibition at 10 µM: molar concentration 10^-5; for inhibition at 1 µM: molar concentration 10^-6; for inhibition at 0.1 µM: molar concentration 10^-7. The class given is biochemical. On the procedure: In the present case the procedure of Hayman and Kinoshita is modified in that the final chromatography step is omitted in the preparation of the enzyme from bovine lens. The following results were obtained when the foregoing listed compounds of formula I were evaluated in the above in vitro test.

Data set [2] has as its system aldose reductase. The settings on record: literature report; cited from earlier work.
Data set [3] in a line: hygroscopicity of the salt. Type of data set: physicochemical. Particulars: disodium salt.

These results are taken from patent publication US4337265A, “Cyclohepta[b]pyrrole derivatives” (Ayerst, McKenna & Harrison Inc., priority 1981, dated 1982).

In the case of `CC(=O)c1c2ccc(Cl)ccc-2n(CC(=O)O)c1=O` [Example 11, 3-Acetyl-6-chloro-1,2-dihydro-2-oxocyclohepta[b]pyrrole-1-acetic Acid], at aldose reductase [1], the inhibition at 10 µM is 85%, the inhibition at 1 µM amounted to 52% and the inhibition at 0.1 µM came to 11%.

On to `NC(=O)c1c2cccccc-2n(CC(=O)O)c1=O` [Example 13, 3-(Aminocarbonyl)-1,2-dihydro-2-oxocyclohepta[b]pyrrole-1-acetic Acid], for which, at aldose reductase [1], the inhibition at 10 µM was determined as 73%, the inhibition at 1 µM amounted to 28% and the inhibition at 0.1 µM is 7%.

Turning to `O=C(O)Cn1c2cccccc-2c(C(=O)O)c1=S` [Example 5, 3-Carboxy-1,2-dihydro-2-thioxocyclohepta[b]pyrrole-1-acetic Acid], on aldose reductase [1], the inhibition at 10 µM stood at 93%, the inhibition at 1 µM turned out to be 85% and the inhibition at 0.1 µM amounted to 47%.

Take `CCOC(=O)c1c2cccccc-2n(CC(=O)O)c1=O` [Example 4, 3-(Ethoxycarbonyl)-1,2-dihydro-2-oxocyclohepta[b]pyrrole-1-acetic Acid]: on aldose reductase [1], the inhibition at 10 µM was 73% and the inhibition at 1 µM came out at 26%.

`O=C(O)CN1C(=O)c2cccc3cccc(c23)C1=O` [1,3-Dioxo-1H-benz[de]isoquinoline-2(3H)-acetic acid]: in the data set on aldose reductase [2], the “aldose reductase inhibition (in words)” value is “effective inhibitor of aldose reductase”.

As for `O=C(O)Cn1c2cccccc-2c(C(=O)O)c1=O` [Example 2, 3-Carboxy-1,2-dihydro-2-oxocyclohepta[b]pyrrole-1-acetic Acid], at aldose reductase [1], the inhibition at 10 µM turned out to be 88%, the inhibition at 1 µM stood at 82% and the inhibition at 0.1 µM was 44%.

For the molecule `CC(=O)c1c2cccccc-2n(CC(=O)O)c1=O` [Example 7, 3-Acetyl-1,2-dihydro-2-oxocyclohepta[b]pyrrole-1-acetic Acid], at aldose reductase [1], the inhibition at 10 µM stood at 76%, the inhibition at 1 µM is 26% and the inhibition at 0.1 µM came to 3%.

On to `O=C(O)C[n+]1cc(C(=O)O)c2cccccc1-2` [3-Carboxy-1-(carboxymethyl)-cyclohepta[b]pyrrolium Chloride], for which, at aldose reductase [1], the inhibition at 10 µM was 80%, the inhibition at 1 µM is 37% and the inhibition at 0.1 µM was found to be 13%.

As for `CCc1c2cccccc-2n(CC(=O)O)c1=O` [Example 8, 3-Ethyl-1,2-dihydro-2-oxocyclohepta[b]pyrrole-1-acetic Acid], on aldose reductase [1], the inhibition at 10 µM came to 60% and the inhibition at 1 µM came to 19%.

For `O=C(O)Cn1c2cccccc-2cc1=O` [Example 3, 1,2-Dihydro-2-oxocyclohepta[b]pyrrole-1-acetic Acid], at aldose reductase [1], the inhibition at 10 µM was found to be 80%, the inhibition at 1 µM came to 45% and the inhibition at 0.1 µM was 9%.

For the molecule `O=C1NC(=O)[C@@]2(CCOc3ccc(F)cc32)N1` [sorbinil, (S)-6-Fluoro-2,3-dihydrospiro(4H-1-benzopyran-4,4'-imidazolidine)-2',5'-dione], the “aldose reductase inhibition (in words)” value with aldose reductase [2] was “aldose reductase inhibiting properties”.

For the molecule `CN(CC(=O)O)C(=O)c1c2ccc(Cl)ccc-2n(CC(=O)O)c1=O` [Example 15, 6-Chloro-3-[(N-carboxymethyl-N-methyl)amino]carbonyl-1,2-dihydro-2-oxocyclohepta[b]pyrrole-1-acetic Acid], the hygroscopicity entry in data set [3] is reported as “hydroscopic”.

Consider `CC(C)(C)C(=O)OCOC(=O)Cn1c2cccccc-2c(C(=O)OCOC(=O)C(C)(C)C)c1=O` [Example 6, 1,2-Dihydro-3-[(2,2-dimethyl-1-oxopropoxy)methoxycarbonyl]-2-oxo-cyclohepta[b]pyrrole-1-acetic Acid (2,2-Dimethyl-1-oxopropoxy)methyl Ester], for which, on aldose reductase [1], the inhibition at 10 µM is 75%, the inhibition at 1 µM was 44% and the inhibition at 0.1 µM turned out to be 9%.

Turning to `CCOC(=O)c1c2ccc(Cl)ccc-2n(CC(=O)O)c1=O` [Example 10, 6-Chloro-3-(ethoxycarbonyl)-1,2-dihydro-2-oxocyclohepta[b]pyrrole-1-acetic Acid], on aldose reductase [1], the inhibition at 10 µM came out at 76%, the inhibition at 1 µM came to 34% and the inhibition at 0.1 µM is 9%.

Regarding `N#Cc1c2cccccc-2n(CC(=O)O)c1=O` [Example 12, 3-Cyano-1,2-dihydro-2-oxocyclohepta[b]pyrrole-1-acetic Acid], at aldose reductase [1], the inhibition at 10 µM was 88%, the inhibition at 1 µM worked out at 82% and the inhibition at 0.1 µM came out at 48%.

As for `O=C(O)Cn1c2ccc(Cl)ccc-2c(C(=O)O)c1=O` [Example 9, 3-Carboxy-6-chloro-1,2-dihydro-2-oxocyclohepta[b]pyrrole-1-acetic Acid], at aldose reductase [1], the inhibition at 10 µM amounted to 85%, the inhibition at 1 µM worked out at 78% and the inhibition at 0.1 µM was 36%.
